Among the data in PubChem BioAssay (NCI) are TGI and GI50 values, retold here.

Broadly, the TGI is the concentration at which net growth stops. A low value points to greater sensitivity of the cells. For orientation: GI50 means the concentration that inhibits growth by half.

Common to all, as to assay: DTP human tumour cell line panel, 48 h
The test system of assay [1] is BT-549 breast.
The test system of assay [2] is HCT-116 colon.
Assay [3] deals with HT29 colon.
In assay [4] the test system is LOX IMVI melanoma.
The subject of assay [5] is M14 melanoma.
Assay [6] concerns NCI-H522 lung.
In assay [7] the test system is RPMI-8226 leukemia.
Assay [8] has as its system SF-539 CNS.
Assay [9] relates to U251 CNS.
In assay [10] the test system is SNB-19 CNS.

Values joined by “and” are separate entries in the source; they are usually repeats but may differ in a detail not shown here. Identical values can stand only once.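 Cultured in 96-well plates, cells were exposed to test compound for 48 hours across five concentrations. The concentration for 50% growth inhibition is given as GI50. TGI is the concentration that stops growth completely.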 Where only a bound is given, the exact number is not on record here.

`Nc1nc(=O)n(C2CC(O)C(CO)O2)cc1F` (configuration not stated): the TGI in [1], in [2], in assay [3], in [4], in [5] and in assay [6] was over 100 µM throughout. Besides, the TGI in [7] is over 100 µM; in assay [8] it was under 0.0448 µM; in assay [9], over 100 µM. The GI50 in [2] is 1.49 µM; in assay [3], under 0.0489 µM; in assay [4], 0.01 µM; in [5], 0.222 µM; in [8], 0.00418 µM; in assay [9], under 0.0506 µM.

For `NC(N)=NN=c1c(=O)c2ccccc2c1=O`, the GI50 in [1] is 15.7 µM; in assay [2], 2.01 µM; in assay [3] it was 2.81 µM; in assay [4], 1.58 µM; in assay [5], 2 µM; in [6] it was 17.7 µM. Also, the GI50 in [7] was 5.7 µM; in [8], 5.67 µM; in [10], 1.72 µM; in assay [9] it was 4.36 µM. The TGI worked out at 29.2 µM in assay [1]; 4.18 µM in assay [2]; 6.27 µM in assay [3]; 3.25 µM in assay [4]; 3.46 µM in assay [5]; 32.8 µM in assay [6]. For the same molecule, the TGI in [7] is 29.6 µM; in [8], 18 µM; in [10], 3.25 µM; in [9], 15.8 µM.

For `O=C1/C(=C/c2cccnc2)SC(=S)N1Cc1ccco1`, the TGI was over 100 µM in assay [1]; over 24.9 µM in [2]; over 100 µM in [3]; over 100 µM in assay [4]; over 100 µM in assay [5]; 4.1 µM in [6]. Also, the TGI in assay [7] was over 23.7 µM; in [8] it was 6.12 µM; in assay [10] it was over 100 µM; in assay [9], 30.6 µM.

Consider `CN1CCN(CCCOc2cccc3nc(Nc4cc(Cl)cc(Cl)c4)ccc23)CC1`, for which the GI50 in assay [1] was 3.43 µM; in assay [2], 1.94 µM; in assay [3], 1.41 µM; in [5], 1.73 µM; in assay [6], 1.64 µM; in assay [7] it was 2.17 µM. Further, the GI50 in [8] was 1.57 µM; in assay [10] it was 1.89 µM; in assay [9] it was 1.72 µM. Moreover, the TGI in assay [1] stood at 13.9 µM; in assay [2], 3.47 µM; in [3], 2.78 µM; in assay [5] it was 3.28 µM; in assay [6], 3.17 µM; in assay [7] it was 4.93 µM. Further, the TGI in [8] amounted to 3.03 µM; in [10] it was 3.48 µM; in assay [9] it was 3.1 µM.

On to `CC[C@@]1(O)C(=O)OCc2c1cc1n(c2=O)Cc2cc3cc(Cl)ccc3nc2-1`, for which the GI50 is 0.0562 µM in assay [1]; 0.0269 µM and 0.0187 µM in assay [3]; 0.00191 µM in assay [4]; 0.00467 µM in assay [5]; 0.00946 µM and 0.022 µM in assay [6]; 0.0132 µM and 0.0334 µM in assay [7]. Besides, the GI50 in assay [8] is 0.00467 µM; in assay [10], 0.00345 µM; in assay [9], 0.00197 µM. The TGI was 2.44 µM in assay [1]; 0.203 µM in assay [3]; 0.0853 µM and 0.0476 µM in assay [5]; 0.298 µM and 0.843 µM in [6]; 0.866 µM and 3.82 µM in assay [10]; 0.0234 µM in assay [9].

With `O=C1C=CC2(CCCCCCC2=O)CC1` (configuration not stated), the TGI in assay [2], in [3], in assay [4], in assay [5], in [6] and in assay [7] was over 100 µM each time. In addition, the TGI in assay [8], in [10] and in assay [9] was over 100 µM throughout.

On to `CCN(CC)CCNc1c2ccccc2nc2cccc([N+](=O)[O-])c12`, for which the TGI in [1] was 0.0187 µM; in assay [2], 0.0182 µM and 0.0466 µM; in assay [3], 0.0408 µM and 0.0455 µM; in [5], 0.0188 µM and 0.0245 µM; in assay [6] it was 0.0132 µM; in assay [8], 0.0472 µM and 0.251 µM. This molecule gave a total growth inhibition concentration (TGI) in assay [9] of 0.0775 µM. Moreover, the GI50 in [4] is 0.0363 µM; in assay [8], 0.107 µM; in assay [10], 0.0166 µM.

With `O=C1OC(CC(=O)c2ccc(F)cc2)C(Cl)=C1Cl` (configuration not stated), the TGI is 46.2 µM in assay [2]; 32.1 µM in assay [3]; 31.9 µM in [4]; 56.6 µM in assay [5]; 34.9 µM in assay [6]; over 100 µM in [7]. Further, the TGI was 35.2 µM in assay [8], 47 µM in assay [10] and 34.3 µM in [9].

For the molecule `O=C(NCCCCCCCCCCCCNC(=O)c1cnc2ccccc2n1)c1cnc2ccccc2n1`, the TGI in [2], in assay [3], in assay [4], in assay [5], in assay [6] and in assay [7] was over 100 µM in each case. In addition, the TGI in assay [8] was 36.8 µM; in [10] it was 47.7 µM; in [9] it was over 100 µM.

As to `C/C(NNC(=O)c1ccccc1O)=C1\C=Nc2ccccc2S1`, the TGI was over 100 µM in assay [2]; over 100 µM in assay [3]; over 100 µM in assay [4]; 31.1 µM in assay [5]; over 100 µM in assay [6]; over 100 µM in [7]. In addition, the total growth inhibition concentration (TGI) in assay [8] is 7.81 µM; in assay [10] it was over 100 µM; in [9], over 100 µM.

In the case of `COC(=O)C(=O)C(CC(=O)Nc1cc(Cl)ccc1Cl)C(=O)OC` (configuration not stated), the TGI in assay [2], in [3], in assay [4], in assay [5], in assay [6] and in assay [7] was over 100 µM each time. In addition, the TGI in assay [8], in assay [10] and in assay [9] was over 100 µM each time.

As for `O=C(NC1CCN(Cc2ccccc2)CC1)c1cc(-c2cccnc2)nc2ccc(Cl)cc12`, the GI50 in assay [1] is 24.8 µM; in [2] it was 5.47 µM; in [4], 3.27 µM; in [7], 6.62 µM; in assay [8], 11.9 µM; in assay [10] it was 11.6 µM. Besides, the GI50 in [9] is 6.94 µM. Moreover, the TGI is over 100 µM in assay [1]; 26.4 µM in assay [2]; 17.2 µM in [4]; over 100 µM in assay [7]; 24.2 µM in assay [8]; 42.3 µM in [10]. This molecule also displayed a TGI in assay [9] of 22.5 µM.
